Measured values: US9012461B2, “FAK inhibitors” (priority 2011, dated 2015)

Tests used:
[1] = tested on: MDA-231-LNA cells; conditions: 3 days
[2] = tested on: taxane-sensitive (SKOV3ip1 and HeyA8) and taxane-resistant (HeyA8-MDR) ovarian cancer cell lines; conditions: in vitro; cited from earlier work
[3] = tested on: HeyA8, SKOV3ip1, and HeyA8-MDR models; conditions: compared with vehicle-treated controls; cited from earlier work
[4] = tested on: MDA-231-LNA primary tumours; assay: Combination study, MDA-231-LNA orthotopic xenograft model; assay type: in vivo, Balb/c SCID mice; conditions: Avastin 12.5 mg/kg i.p. twice weekly; compound 16 (citrate salt) p.o. 54 mg/kg BID

Compound	IC50 [1] [µM]	also measured
CNC(=O)c1ccccc1Nc1nc(Nc2ccc(N3CCOCC3)cc2OC)ncc1Cl [TAE226]	–	phosphorylation of FAK [2]: inhibited the phosphorylation of FAK at both Y397 and Y861 sites; reduction of tumour burden [3]: 46-64%
Avastin	–	median survival time [4]: 24 days

The next lines start with results.

IC50 [1] [µM]	Compound	also measured
> 10	NC(=O)Cc1ccccc1CCc1nc(Nc2ccc(C3CCNC3)cc2)ncc1C(F)(F)F (stereo not drawn) [Compound 35, 2-(2-(2-(2-((4-(pyrrolidin-3-yl)phenyl)amino)-5-(trifluoromethyl)pyrimidin-4-yl)ethyl)phenyl)acetamide]	–
> 5	NC(=O)Cc1cccnc1CCc1nc(Nc2ccc(C3CCNCC3)cc2)ncc1C(F)(F)F [Compound 32, 2-(2-(2-(2-((4-(Piperidin-4-yl)phenyl)amino)-5-(trifluoromethyl)pyrimidin-4-yl)ethyl)pyridin-3-yl)acetamide]	–
> 10	CCN1CCC(c2ccc(Nc3ncc(C(F)(F)F)c(CCc4ncccc4CC(N)=O)n3)cc2)CC1 [Compound 38, 2-(2-(2-(2-((4-(1-Ethylpiperidin-4-yl)phenyl)amino)-5-(trifluoromethyl)pyrimidin-4-yl)ethyl)pyridin-3-yl)acetamide]	–
